Data as given in patent US7923231B2, “Production of glucuronic acid using myo-inositol oxygenase from cryptococcus neoformans” (Cargill, Incorporated, priority 2004, dated 2011).
Read-outs that look alike come from different tables or passages of the source.

What was measured:
[1] = cited from earlier work
[2] = tested on: myo-inositol oxygenase (MIO); experiment: Small-scale biocatalytic conversion: buffer concentration and ionic strength; assay type: biochemical, Cryptococcus neoformans; settings: for increase in initial reaction rate and final concentration of D-glucuronic acid produced: salts concentrations higher than 0.25 M
Method: A small-scale protocol was used to develop the biocatalytic production of glucuronic acid from myo-inositol. Cells containing myo-inositol oxygenase were grown as described before, harvested by centrifugation and washed in 50 mM MOPS buffer at pH 7.0. The cell paste was kept frozen until use. To prepare the enzyme for the reaction, the cells were resuspended in 2 volumes of the same buffer at pH 6.5 and broken using either a French press or a MICROFLUIDICS® homogenizer (MICROFLUIDIZER® cell disruptor M-110L, available from Microfluidics, MA). Breakage was accomplished by 2 to 3 passes at 20,000 psi, and was followed visually using a microscope. The cell extract was centrifuged for 20 minutes at 15,000 rpm to remove the cell debris. Total soluble protein was measured in the clear supernatant, as described in Example 1. The cell extract was diluted to a protein concentration of 75 mg/ml and the enzyme was incubated for 1 hr on ice in the presence of ascorbic acid and ferrous ammonium sulfate at concentrations of 5 and 2 mM, respectively.
The enzyme reaction was carried out in 0.7 L reactors with temperature, pH, agitation and dissolved oxygen control. A solution of 50 g/L myo-inositol in 50 mM MOPS at pH 6.5 (200 mL) was used in the standard protocol. Temperature was controlled at 15° C. Pure air, air enriched with oxygen or pure oxygen were used to supply enough oxygen for the reaction to proceed. The air was supplied either in the headspace of the reactor or was sparged into the liquid. The formation of glucuronic acid results in a decrease in the pH of the broth. To keep the pH at the desired value, pH 6.5, the acid was neutralized with 4 N NaOH. The enzyme solution was added to reach an initial concentration of 2 g soluble protein/L. The reaction proceeded very fast immediately after the enzyme addition and the rate decayed over time. Different experiments varied the number and/or amount of enzyme additions. The progress of the reaction was followed by HPLC analysis.
Effect of buffer concentration and ionic strength. The effect of the buffer concentration was tested with the described protocol of Example 6, and included testing without any buffer, using 5 mM MOPS, and using 50 mM MOPS. No difference in the performance of the reaction was observed, either in reaction rate or in extent of reaction, as long as good pH control was provided.
Additionally, further studies on increasing the ionic strength of the broth by adding salts, using either NaCl or sodium glucuronate at 0.25 M and 0.5 M, or mixes of both, indicated better enzyme performance at higher ionic strength.

[3] = tested on: myo-inositol oxygenase (MIO); experiment: Conversion rate additives in the myo-inositol conversion mixture; assay type: biochemical, Cryptococcus neoformans; settings: additive in conversion mixture
Source text: Although the conversion rate increased, the final conversion percentages were similar to conversion mixtures without those same additives.

[4] = Freeze-thaw and frozen storage stability of MIO activity; settings: continuous storage at −80° C. for several months
Source text: A lysed cell mixture may be added either purified or unpurified into a mixture for MIO activation. If desired, samples containing MIO may be stored prior to use. Samples containing MIO may be stored at low temperatures for short periods of time or may be frozen for longer periods of storage without significant MIO degradation. […] Additional freeze-thaw cycles, however, did reduce MIO activity.

For N[C@@H](CS)C(=O)O [Cysteine], the reduction potential ([1]; pH 7) is listed as −230 mV.

For O=C1O[C@H]([C@@H](O)CO)C(O)=C1O [L-ascorbic acid], the reduction potential ([1]; 25° C.) is given as “+54 mV” and the reduction potential ([1]; 30° C.) is given as “+51.2 mV”.

With O=S(=O)(O)CCCN1CCOCC1 [MOPS, 3-[N-morpholino]propanesulfonic acid] the “effect of buffer concentration on reaction rate and extent of reaction” value ([2]; no buffer, 5 mM and 50 mM MOPS, with good pH control) was “No difference”.

In the case of [Cl-].[Na+] [NaCl], the “increase in initial reaction rate and final concentration of D-glucuronic acid produced” value [2] is reported as about 50%.

With O=C[C@H](O)[C@@H](O)[C@H](O)[C@H](O)C(=O)[O-].[Na+] [sodium glucuronate, reference compound] the “inhibition of the reaction” value ([2]; high concentrations) was “Some inhibition” and the “increase in initial reaction rate and final concentration of D-glucuronic acid produced” value [2] was about 50%.

With “Bovine serum albumin: protein tested as conversion rate additive” the “effect on MIO specific activity and conversion rate” value [3] was “minimal effect”.

With Superoxide dismutase the “effect on MIO specific activity and conversion rate” value [3] was “slightly increase”.

catalase showed an improvement in conversion ([3]; after 6.5 hours) of 18%.

B1: MIO: Fe(II) containing enzyme that converts myo-inositol to D-glucuronic acid using oxygen (protein, UniProt Q9UGB7 1-285, looked up)
Inositol oxygenase: MKVTVGPDPSLVYRPDVDPEVAKDKASFRNYTSGPLLDRVFTTYKLMHTHQTVDFVRSKHAQFGGFSYKKMTVMEAVDLLDGLVDESDPDVDFPNSFHAFQTAEGIRKAHPDKDWFHLVGLLHDLGKVLALFGEPQWAVVGDTFPVGCRPQASVVFCDSTFQDNPDLQDPRYSTELGMYQPHCGLDRVLMSWGHDEYMYQVMKFNKFSLPPEAFYMIRFHSFYPWHTGRDYQQLCSQQDLAMLPWVREFNKFDLYTKCPDLPDVDKLRPYYQGLIDKYCPGILSW
In the case of B1, the “MIO activity on long-term storage” value [4] is reported as “remained stable”.
